According to patent publication US4902699A, “Oxime of 1, 2, 5, 6-tetrahydropyridine compounds their use as medicaments and the compositions containing them” (Roussel Uclaf, priority 1987, dated 1990):
Counter-ions that a name gives are not always drawn. Like-named read-outs stand apart in the source and are kept apart here.

How the values were obtained:
Solubility = assay type: physicochemical; details: for Solubility in water: H2O
Diarrhoeic activity = assay: Diarrhoeic activity; set-up: species or system mice; details: mouse, in vivo; oral route; dose which causes diarrhoea in 50% of the animals; read-out: DE50 (the source's name)
Experimental: The test is carried out on male mice (CD1 Charles Rivers) weighing […], after fasting for 6 hours. The product dissolved at 5% in methocel is administered by oral route by means of an oesophage probe.
Control animals receive only the excipient.
After treatment, the animals are placed separately in cages of which the base is covered with blotting paper, and they are put under observation for 30, 60, 120 and 180 minutes.
The sheets of absorbent paper are changed after each observation.
The consistency of the feces is evaluated according to the method of Randall and Baruth (Arch. Int. Pharmacodyn. 220, 94, 1976) according to the following scale of values.
1: feces slightly soft, with or without a damp halo
2: feces slightly soft, with a well defined circle of humidity.
3: feces soft with a large circle of humidity.
4: feces without consistency with a very large circle of humidity.
For each product, the dose is noted which causes diarrhoea in 50% of the animals according to the method of Miller and Tainter (Proc. Soc. Exp. Biol. Med., 57, 261, 1944).

Acute toxicity, oral = assay: Acute toxicity, oral; set-up: species or system mice; details: mouse, in vivo, mortality during 7 days
Experimental: The test was carried out on male mice (CD1 Charles Rivers), of 22 to 24 g, having fasted for 16 hours. […] The mortality is noted during the 7 days following the treatment.

[1] = tested on: male mice (CD1 Charles RAivers); assay: Hypothermic activity; assay type: in vivo; details: Mus musculus, read-out: Effective dose (-1° C.)
Experimental: (§1) The test is carried out on male mice (CD1 Charles RAivers) weighing 25-30 g, having fasted for 6 hours.
The temperature of the body is noted by means of a thermocouple inserted about 1.5 cm in the rectum and connected to an electric temperature recorder.
The products are administered by oral or sub-cutaneous route and the temperatures are noted at the instant 0 and at 30 minutes, 1 hour, 2 hours and 2 and a half hours after treatment.
The degree of hypothermia is evaluated as the difference between the treated animals and the controls, and the dose necessary to reduce the body temperature by 1° C. is noted.

[2] = tested on: male mice (CD1 Charles RAivers); assay: Variation of the body temperature (duration of action); assay type: in vivo
Experimental: as §1
The temperature of the body is noted by means of a thermocouple inserted about 1.5 cm in the rectum and connected to an electric temperature recorder. […]
The duration of action of the products is determined, using the doses able to reduce the temperature by 1° to 1.5° C.

[3] = tested on: ileum isolated from guinea-pig; assay: Test of ileum isolated from guinea-pig, agonist (contracting) activity; details: Cavia porcellus; negative logarithm of the dose which produces 50% of the maximum effect; read-out: pD2 (converted)
Experimental: Pieces of ileum are removed from guinea-pigs killed by decapitation. The isolated ileum is placed in 10 cm^3 of Tyrode solution at 37° C. and aerated with a mixture of oxygen (95%) and carbon dioxide gas (5%). The contractions due to the products are registered by means of a detector connected to a polygraph. The products to be tested are added at concentrations between 1.10^-3 M and 1.10^-8 M/l.
The products presenting a contracting effect are tested vis-a-vis atropine and hexamethonium in order to establish if the activity is of "muscarine" or "nicotine" type.
The agonist activity is expressed in pD2 (negative logarithm of the dose which produces 50% of the maximum effect).

[4] = tested on: patients having a memory defect; details: injected by intravenous route; cited from earlier work
[5] = tested on: central cholinergic system; details: cited from earlier work

| Structure (SMILES) | Solubility in 2N HCl (Solubility) | Solubility in 2N NaOH (Solubility) | Solubility in water (Solubility) | ED50 (Diarrhoeic activity) [mg/kg] | LD50 at 168 h (Acute toxicity, oral) [mg/kg] | ED (-1 C) ([1]; O.R. (oral route)) [mg/kg] | ED (-1 C) ([1]; SC.R (sub-cutaneous route)) [mg/kg] | EC50 [3] [µM] | other results |
| --- | --- | --- | --- | --- | --- | --- | --- | --- | --- |
| CON=CC1=CCCN(OC)C1 [Example 2, Hydrochloride of the methyl ether of 1-methoxy-1,2,5,6-tetrahydropyridin-3-carboxaldehyde oxime] | Soluble | Soluble | Soluble |  |  |  |  |  |  |
| CON=CC1=CCCN(OC(C)=O)C1 [Example 3, Hydrochloride of the methyl ether of 1-acetoxy-1,2,5,6-tetrahydropyridin-3-carboxaldehyde oxime] | soluble | insoluble | insoluble | 0.5 | 100 | 0.22 | 0.2 | 12.6 | Variations of the body temperature ([2]; os, 0.25 mg/kg, 30 min): -1.2 °C; Variations of the body temperature ([2]; os, 0.25 mg/kg, 60 min): -0.7 °C; Variations of the body temperature ([2]; os, 0.25 mg/kg, 120 min): +0.1 °C; Variations of the body temperature ([2]; os, 0.25 mg/kg, 180 min): +0.1 °C; Variations of the body temperature ([2]; sc, 0.25 mg/kg, 30 min): -1.2 °C; Variations of the body temperature ([2]; sc, 0.25 mg/kg, 60 min): -0.8 °C; Variations of the body temperature ([2]; sc, 0.25 mg/kg, 120 min): +0.1 °C; Variations of the body temperature ([2]; sc, 0.25 mg/kg, 180 min): +0.1 °C |
| C#CCON=CC1=CCCN(O)C1 [Example 4, Hydrochloride of the propargyl ether of 1-hydroxy-1,2,5,6-tetrahydropyridin-3-carboxaldehyde oxime] | Soluble | Soluble | Soluble | 0.9 | 80 | 0.48 | 0.49 | 5.75 | Variations of the body temperature ([2]; os, 0.75 mg/kg, 30 min): -1.6 °C; Variations of the body temperature ([2]; os, 0.75 mg/kg, 60 min): -1.0 °C; Variations of the body temperature ([2]; os, 0.75 mg/kg, 180 min): -0.1 °C; Variations of the body temperature ([2]; sc, 0.75 mg/kg, 30 min): -1.4 °C; Variations of the body temperature ([2]; sc, 0.75 mg/kg, 60 min): -1.1 °C; Variations of the body temperature ([2]; sc, 0.75 mg/kg, 120 min): -0.1 °C |
| CON=CC1=CCCN(OC(=O)Nc2ccc(OC)cc2)C1 [Example 16, Methyl ether of 1-paramethoxyphenylaminocarbonyloxy-1,2,5,6-tetrahydropyridin-3-carboxaldehyde oxime] |  |  |  | 6 | 60 | 0.88 | 0.78 | > 100 | Variations of the body temperature ([2]; os, 1. mg/kg, 30 min): -1.1 °C; Variations of the body temperature ([2]; os, 1. mg/kg, 60 min): -1.1 °C; Variations of the body temperature ([2]; os, 1. mg/kg, 120 min): -0.1 °C; Variations of the body temperature ([2]; sc, 1. mg/kg, 30 min): -1.2 °C; Variations of the body temperature ([2]; sc, 1. mg/kg, 60 min): -1.5 °C; Variations of the body temperature ([2]; sc, 1. mg/kg, 120 min): -0.3 °C; Variations of the body temperature ([2]; sc, 1. mg/kg, 180 min): +0.1 °C |
| COC(=O)C1=CCCN(C)C1 [arecoline] |  |  |  | 35 |  |  |  | 0.331 | effect on patients having a memory defect [4]: positive effect; duration of action ([5]; in vivo): short duration of action; activity by oral route ([5]; oral route): very weak activity |
